Measured values: patent publication US11186577B2, “Vasopressin receptor antagonists and products and methods related thereto” (BlackThorn Therapeutics, Inc., priority 2017, dated 2021)
Like-named read-outs stand apart in the source and are kept apart here.

Legend:
[1] = target: human Oxytocin Receptor (hOTR) (Homo sapiens (Human), UniProt P30559); test: Oxytocin receptor antagonist assay (oxytocin-evoked calcium, FLIPR, CHEM-1-hOTR cells); format: cell-based; settings: read-out: OT IC50
In short: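 Oxytocin-evoked intracellular calcium rise measured by FLIPR^TETRA fluorescence (Calcium-6 dye, 3 min read) in CHEM-1-hOTR cells. Test compounds, 10-point 1:3 dilutions, were added 15 min at 37 °C before an EC80 oxytocin challenge (EC80 set each assay day); buffer HBSS with 20 mM HEPES.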

[2] = target: human Arginine Vasopressin Receptor 1b (AVPR1b) (Homo sapiens (Human), UniProt P47901); test: Vasopressin V1B receptor antagonist assay (AVP-evoked calcium, FLIPR, CHO-AVPR1b cells); format: cell-based
Method: The purpose of the assay is to determine the inhibitory effect of synthesized compounds on the Vasopressin V1b receptor. The assay was performed in Chinese Hamster Ovary (CHO) cells expressing the human Arginine Vasopressin Receptor 1b (AVPR1b). Arginine Vasopressin (AVP) evokes an increase in intracellular calcium in CHO-AVPR1b cells which is measured in a fluorescence assay on the FLIPR^TETRA using calcium sensitive dyes. Test compounds were assessed for their ability to affect the magnitude of the response to AVP, with antagonists showing a concentration-dependent reduction in the AVP-mediated fluorescence.
CHO-AVPR1b cells were maintained in routine culture in T175 Flasks at 37° C., 5% CO2. The growth medium consisted of Ham's F12 media supplemented with 10% v/v fetal bovine serum, 1× non-essential amino acids, and 0.4 mg/ml Geneticin G418.
Cells were harvested from T175 flasks when they were 80-90% confluent by first washing the cell monolayer with PBS and then dissociated using trypsin 0.05%/EDTA (3 mL for a T175 Flask). The flasks were incubated at room temperature until the cells detached. To the cell suspension, 10 ml of growth media was added and the cell density determined using the Vi-Cell automated cell counter. The cells were spun at 1000 rpm for 3 minutes, then the supernatant was carefully removed and discarded. The cell pellet was re-suspended at 6.0e^5 cells/ml in growth media. 25 μL of cells in growth media was dispensed into each well (15,000 cells per well) of a poly-D-lysine coated black, clear bottomed, 384-well plate. The plates were incubated at 37° C., 5% CO2 overnight.
At the start of each assay day, the potency of AVP is assessed and an EC80 concentration determined for subsequent compound profiling. Assays were performed using a two-step addition protocol on the FLIPR^TETRA; first addition of 5 μl of control or test compound at 10× final in assay buffer with 15 min incubation at 37° C., 5% CO2 followed by 10 μl of AVP at 6× final concentration in assay buffer. Changes in fluorescence were monitored for 3 min after both additions on the FLIPR^TETRA using 470-495 nm excitation and 515-575 nm emission wavelengths. The assay buffer consisted of HBSS (+Ca/+Mg) supplemented with 20 mM HEPES, and for the preparation of the AVP agonist only, 0.1% w/v bovine serum albumin. The assay was initiated by the removal of growth media from the cells and replacement with 45 μl of Calcium-6 dye (Molecular Devices) prepared at 1× in assay buffer. Cells were loaded with dye for 60-90 min at 37° C., 5% CO2 before initiation of the FLIPR^TETRA protocol. […] For compound profiling, test compounds were first serially diluted in DMSO (10-point curve, 1:3 dilutions) then diluted 33.3-fold in assay buffer prior to addition to the dye loaded cells on the FLIPR^TETRA. At the end of the incubation period 10 μl of AVP in assay buffer containing 0.1% BSA was added at the previously determined EC80 concentration.
In-plate controls for the assay include a Nelivaptan concentration-response curve as the reference V1b antagonist and an AVP concentration-response curve to confirm the reproducibility of the EC80 used for the compound challenge.

[3] = in vitro antagonist assay, reference compounds

Sequence of human Oxytocin Receptor (hOTR) (P30559 whole entry): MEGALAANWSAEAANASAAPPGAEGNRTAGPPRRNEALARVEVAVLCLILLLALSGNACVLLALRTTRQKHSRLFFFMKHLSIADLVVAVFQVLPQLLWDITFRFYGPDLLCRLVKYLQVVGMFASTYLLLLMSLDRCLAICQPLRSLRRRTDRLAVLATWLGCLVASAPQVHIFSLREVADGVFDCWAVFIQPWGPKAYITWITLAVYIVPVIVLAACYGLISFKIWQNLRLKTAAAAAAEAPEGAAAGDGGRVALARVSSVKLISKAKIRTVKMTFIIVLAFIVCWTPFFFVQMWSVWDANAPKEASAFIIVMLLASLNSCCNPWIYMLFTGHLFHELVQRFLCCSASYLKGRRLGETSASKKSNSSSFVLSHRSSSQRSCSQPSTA
Sequence of human Arginine Vasopressin Receptor 1b (AVPR1b) (P47901 whole entry): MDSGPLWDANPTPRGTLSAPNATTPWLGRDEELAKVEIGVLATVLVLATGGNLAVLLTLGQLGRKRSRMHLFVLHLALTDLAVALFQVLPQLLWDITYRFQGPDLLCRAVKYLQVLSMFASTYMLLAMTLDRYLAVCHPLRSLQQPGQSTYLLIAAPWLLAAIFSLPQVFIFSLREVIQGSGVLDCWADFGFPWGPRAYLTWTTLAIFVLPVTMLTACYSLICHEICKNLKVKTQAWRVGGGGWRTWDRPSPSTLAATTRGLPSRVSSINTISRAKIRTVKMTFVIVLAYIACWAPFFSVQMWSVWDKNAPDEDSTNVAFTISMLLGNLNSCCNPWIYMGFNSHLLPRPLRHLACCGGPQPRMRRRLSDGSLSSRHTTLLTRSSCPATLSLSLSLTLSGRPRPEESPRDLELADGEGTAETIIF

| SMILES | IC50 [1] [nM] | IC50 [2] [nM] | IC50 [1, 3] [nM] | IC50 [2, 3] [nM] |
| --- | --- | --- | --- | --- |
| CC1c2nnc(C3CC4(C3)CN(c3ccc(F)cn3)C4)n2-c2ccc(Cl)cc2CN1C(=O)C(C)(C)F (single isomer, unassigned) [Cpd 178A] | 100 to 500 | > 1000 |  |  |
| CN1Cc2cc(Cl)ccc2-n2c(nnc2C2CC3(C2)CN(c2ncccc2F)C3)C1 [compound 4] | > 1000 | > 1000 |  |  |
| O=C(C1CC1)N1CC2(CC(c3nnc4n3-c3ccc(Cl)cc3CN(C(=O)C3(F)CC3)C4)C2)C1 [compound 136] | > 1000 | > 1000 |  |  |
| CC1c2nnc(C3CC4(C3)CN(c3ccc(F)cn3)C4)n2-c2ccc(Cl)cc2CN1C(=O)OC1CC1 (single isomer, unassigned) [Cpd 191A] | 100 to 500 | > 1000 |  |  |
| CC1c2nnc(C3CC4(C3)CN(c3ncccn3)C4)n2-c2ccc(Cl)cc2CN1C(=O)OC(CF)CF (single isomer, unassigned) [Cpd 202A] | > 1000 | > 1000 |  |  |
| COC(=O)N1Cc2cc(Cl)ccc2-n2c(C3CC4(C3)CN(c3ncc(F)cn3)C4)nnc2C1C (single isomer, unassigned) [Cpd 170A] | > 1000 | > 1000 |  |  |
| COC(=O)N1Cc2cc(Cl)ccc2-n2c(C3CC4(C3)CN(c3ccc(F)cn3)C4)nnc2C1C (single isomer, unassigned) [142A] | > 1000 | > 1000 |  |  |
| CC1c2nnc(C3CC4(C3)CN(c3ncccn3)C4)n2-c2ccc(Cl)cc2CN1C(=O)OC1CC1 (stereo not shown) [compound 171] | > 1000 | > 1000 |  |  |
| Clc1ccc2c(c1)CN(C1CCC1)Cc1nnc(C3CC4(C3)CN(c3ccccn3)C4)n1-2 [compound 41] | 500 to 1000 | > 1000 |  |  |
| CN1Cc2cc(Cl)ccc2-n2c(nnc2C2CC3(C2)CN(C(=O)C2CC2)C3)C1 [compound 28] | > 1000 | > 1000 |  |  |
| CC1c2nnc(C3CC4(C3)CN(c3ccc(F)cn3)C4)n2-c2ccc(Cl)cc2CN1C (single isomer, unassigned) [Cpd 179A] | > 1000 | > 1000 |  |  |
| CCOC(=O)N1Cc2cc(Cl)ccc2-n2c(C3CC4(C3)CN(c3ccc(F)cn3)C4)nnc2C1C (stereo not shown) [compound 169] | 100 to 500 | > 1000 |  |  |
| O=C(C(F)F)N1Cc2cc(Cl)ccc2-n2c(nnc2C2CC3(C2)CN(c2ccccn2)C3)C1 [compound 122] | > 1000 | > 1000 |  |  |
| CC1c2nnc(C3CC4(C3)CN(c3ncccn3)C4)n2-c2ccc(Cl)cc2CN1C(=O)OC1CC1 (single isomer, unassigned) [Cpd 171A] | > 1000 | > 1000 |  |  |
| O=C(OC(CF)CF)N1Cc2cc(Cl)ccc2-n2c(nnc2C2CC3(C2)CN(c2ccc(F)cn2)C3)C1 [compound 79] | 100 to 500 | > 1000 |  |  |
| Clc1ccc2c(c1)CN(C1CC1)Cc1nnc(C3CC4(C3)CN(c3ccccn3)C4)n1-2 [compound 56] | 500 to 1000 | > 1000 |  |  |
| CN1Cc2cc(Cl)ccc2-n2c(nnc2[C@H]2CC[C@H](Oc3ccccn3)CC2)C1 [balovaptan, reference compound] |  |  | > 1000 | > 1000 |
| CC(CF)OC(=O)N1Cc2cc(Cl)ccc2-n2c(nnc2C2CC3(C2)CN(c2ccc(F)cn2)C3)C1 (stereo not shown) [compound 78] | 100 to 500 | > 1000 |  |  |
| O=C(N1Cc2cc(Cl)ccc2-c2c(C3CC4(C3)CN(c3cccnn3)C4)noc2C1)C(F)(F)F [compound 105] | 100 to 500 | > 1000 |  |  |
| COC(=O)N1Cc2cc(Cl)ccc2-n2c(C3CC4(C3)CN(c3cnccn3)C4)nnc2C1C (single isomer, unassigned) [Cpd 165A] | 500 to 1000 | > 1000 |  |  |
| FC(F)CN1Cc2cc(Cl)ccc2-n2c(nnc2C2CC3(C2)CN(c2ccccn2)C3)C1 [compound 52] | 500 to 1000 | > 1000 |  |  |
| CC(C)OC(=O)N1Cc2cc(Cl)ccc2-n2c(C3CC4(C3)CN(c3ncc(F)cn3)C4)nnc2C1C (single isomer, unassigned) [Cpd 201A] |  | > 1000 |  |  |
